Columns and labels:
[1] = tested on: CHO cells expressing CysLT1R, CysLT2R, or P2Y12 receptors; experiment: Calcium flux in Fura-2-AM-loaded CHO transfectants; format: cell-based, human; settings: LTE4 500 nM, ADP 100 μM; ADP response reflects endogenous P2Y receptors
P2Y12 receptors = P2Y12 receptors (Mus musculus, UniProt Q9CPV9); experiment: Clopidogrel effect on LTE4-mediated amplification of OVA-induced pulmonary inflammation; format: in vivo; set-up: from tissue; host or cells: whole animal: BALB/c (OVA model) and C57BL/6 (Der f model) mice; settings: whole lung RNA 24 h after last OVA challenge
Chain of P2Y12 receptors (Q9CPV9 whole entry): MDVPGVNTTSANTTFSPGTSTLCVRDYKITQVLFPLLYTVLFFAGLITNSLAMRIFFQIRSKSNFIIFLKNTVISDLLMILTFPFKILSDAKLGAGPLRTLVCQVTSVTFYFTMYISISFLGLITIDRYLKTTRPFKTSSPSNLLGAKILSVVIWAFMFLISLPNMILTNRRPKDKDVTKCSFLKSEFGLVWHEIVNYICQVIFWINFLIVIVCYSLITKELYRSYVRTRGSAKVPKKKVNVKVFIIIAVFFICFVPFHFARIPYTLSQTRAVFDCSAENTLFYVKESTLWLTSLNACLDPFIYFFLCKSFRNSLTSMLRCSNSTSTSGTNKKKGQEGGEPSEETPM
Procedure: FIG. 4. […] 4A. […] Clopidogrel (500 μg/ml) was added to the drinking water of the indicated groups of mice for 72 h before the first intranasal dose of LTs, and was maintained throughout the treatment. Results are mean±SEM from at least 9 mice in each group. The experiments were repeated three times with similar results. 4B. PAS stains (left column) from representative mice in the indicated groups showing the effect of clopidigrel on goblet cell metaplasia. Higher magnification images of H & E stains (right) from the same animals showing cellular characteristics of the bronchovascular infiltrates. 4C. Effect of clopidogrel administration on the steady-state expression of IL-13 and MUC5AC mRNA as determined by real-time PCR of whole lung RNA extracted 24 h after the last OVA challenge of the indicated groups. Data are mean±SEM from 4-5 mice/group from a single experiment. Results in a second experiment were similar 4D-4F. […] 4D. Total cell numbers (top), percentages of eosinophils (middle), and total numbers of eosinophils in BAL fluid recovered 24 h after the last challenge with OVA. 4E. Goblet cell metaplasia (top) and representative PAS stains (bottom) from wild-type and p2ry12^−/− mice subjected to the same protocol. 4E. Inflammation scores from the same mice. Data in 4D-4F are from 4 mice per group. Results in a second experiment were similar 4G. BALB/c Cysltr1/Cysltr2^−/− mice and age-matched WT controls were subjected to the same protocol as the p2ry12^−/− mice. Total cell numbers (top), percentages of eosinophils (middle), and total numbers of eosinophils in BAL fluid recovered 24 h after the last challenge with OVA. Results are from 6 mice per group. Three experiments were performed with similar results. 4H. Goblet cell numbers (top) and representative PAS stains (bottom). 4I. Quantitative assessment of bronchovascular inflammation as determined by H & E stains. Results are from 6 mice/group.
FIG. 5. Effect of clopidogrel on LTE4-mediated amplification of pulmonary inflammation. 5A. […] The indicated mice were treated with clopidogrel for 72 h before the first dose of leukotriene. Results are mean±SEM from a minimum of 9 mice in each group. 5B. PAS stains (left column) from representative mice in the indicated groups showing the effect of clopidigrel on goblet cell metaplasia. Higher magnification images of H & E stains (right) from the same animals showing cellular characteristics of the bronchovascular infiltrates. 5C. Effect of clopidogrel administration on the steady-state expression of IL-13 and MUC5AC mRNA as determined by real-time PCR of whole lung RNA extracted 24 h after the last OVA challenge of the indicated groups. Data are mean±SEM from 4-5 mice/group. […]

human CysLT1R = biological target: T1, human CysLT1R (Homo sapiens, UniProt Q9Y271); experiment: ERK activation in CysLT1R CHO transfectants; format: cell-based
T1 construct: expressed in transfected cells
T1 sequence (Q9Y271 1-337): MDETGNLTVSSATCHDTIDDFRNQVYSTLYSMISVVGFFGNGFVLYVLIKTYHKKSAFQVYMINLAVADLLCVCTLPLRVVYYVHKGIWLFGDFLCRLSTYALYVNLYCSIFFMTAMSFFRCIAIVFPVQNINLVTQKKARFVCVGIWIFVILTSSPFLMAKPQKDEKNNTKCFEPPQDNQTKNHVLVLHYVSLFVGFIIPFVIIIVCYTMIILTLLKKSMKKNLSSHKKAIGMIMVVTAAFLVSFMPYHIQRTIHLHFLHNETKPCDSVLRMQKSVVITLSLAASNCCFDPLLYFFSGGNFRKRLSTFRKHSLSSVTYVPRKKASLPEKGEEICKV
Procedure: FIG. 1. Activation by recombinant human P2Y12 receptors in response to cys-LTs. The human P2Y12 receptor cDNA was cloned in forward and reverse orientation into the expression vector pEF1/His B and transfected into CHO cells using Fugene HD reagent. Stably-expressing clones were selected using G418 (1000 μg/ml), and expression of the construct was confirmed by cytofluorographic detection of the HIS tag. 1A. […] 1B. SDS-PAGE immunoblots showing phosphorylation of ERK2 by CHO cells stably expressing human P2Y12 receptors in reverse (negative control) or forward orientations. […] The blots were stripped and re-probed with an antibody (Ab) recognizing total ERK1 and ERK2. […] 1C. Effect of the selective P2Y12 receptor antagonist 2-MesAMP (MeS) on ligand-induced ERK phosphorylation. P2Y12 receptor expressing CHO cells were stimulated with the same doses of agonists used in 1A, in the absence or presence of 2-MesAMP (100 μM). 1D. Comparison of P2Y12 receptor-mediated responses to cys-LTs with those of recombinant human CysLT1R and CysLT2R expressed in CHO cells, and the effect of the CysLT1R antagonist MK571 (1 μM).
A P2Y12 receptor cDNA was amplified by reverse transcriptase polymerase chain reaction (RT-PCR) from RNA extracted from primary hMCs and cloned into a mammalian expression vector. Expression was confirmed by detection of a histidine (HIS) tag by flow cytometry. […]

| Compound | calcium flux [1] | lung expression of IL-13 and MUC5AC mRNA (real-time PCR) (P2Y12 receptors) | effect on cys-LT-induced ERK activation (human CysLT1R) |
| --- | --- | --- | --- |
| CCCCC/C=C\C\C=C/C=C/C=C/[C@@H](SC[C@H](N)C(=O)O)[C@@H](O)CCCC(=O)O [LTE4] | failed to flux calcium | tended to increase the expression of both transcripts |  |
| CN(C)C(=O)CCSC(SCCC(=O)O)c1cccc(/C=C/c2ccc3ccc(Cl)cc3n2)c1 (stereo not drawn) [MK571] |  |  | susceptible |

Reference: patent US8299097B2, “Methods for treating inflammatory disorders” (The Brigham and Women's Hospital, Inc., priority 2008, dated 2012)
